Experiment: Electrochemical reduction potential (Er) measurement, SHACV / fast scan CV
Format: physicochemical
Details: for Er: Table XIX, reduction potential vs. Ag/AgCl, in V (unit assumed)
From the text: In the practice of this invention the reduction potential of a given dye may be determined in various ways. If available, the published reduction potential may be employed. Reduction potentials for numerous cyanine and merocyanine dyes are available in the literature. (See J. Lenhard, Journal of Imaging Science, vol. 30 pp. 27-35 (1986).) A large amount of data has been generated on the reduction and oxidation potentials of these dyes from their use in photography and related arts where they are employed, inter alia, as spectral sensitizers.
If a published reduction potential is not available, suitable techniques for measuring reduction potential are available. Accurate electrochemical oxidation and reduction potentials for these organic dyes can be measured by the techniques of fast scan cyclic voltommetry (CV) or second harmonic ac voltommetry (SHACV). SHACV measurements are made as described by Lenhard in the Journal of Imaging Science volume 30, 1986 pp 27-35 using a commercially available (Princeton Applied Research Corp.) potentiostat in conjunction with voltage programmer, a conventional lock-in amplifier, and a low-distortion oscillator. The SHACV method utilizes an ac voltage waveform (of a frequency greater than or equal to 400 hz) that is superimposed on a DC potential ramp. On the other hand, the measurement of the oxidation or reduction potential by the CV method utilizes a (high frequency) triangular voltage waveform. The general procedures for measuring potentials by this method have been described by Wightman in Analytical Chemistry, 1984, vol. 56, pp524 and Journal of Physical Chemistry, 1984, vol. 88, pp3915. The specific application of this technique to the measurement of cyanine dye potentials has been reported by Nomura and Okazaki, Chemistry Letters, 1990, pp2231-2234. Commercial instrumentation especially designed for fast scan (i.e., high frequency) CV is available. It is noteworthy that because of the complicated nature of many of the cyanine dyes, electrochemical reactions, conventional slow scan cyclic voltommetry or polarography methods (as described by R. Large in Photographic Sensitivity, R. Cox, ed., Academic Press, New York, 1973, pp 241-263) provide only approximate values for oxidation and reduction potentials. Errors as large as 0.4 V from the true potential can be obtained by using slow scan CV or electrochemical methods.
The procedure for measuring the oxidation or reduction potential by the SHACV or fast scan CV method utilizes solutions of acetonitrile (or similar nonaqueous solvent) with added tetrabutylammonium tetrafluoroborate TBABF4 at a concentration of 0.1 M and ca. 5×10^−4 M of the cyanine, oxonol, or merocyanine dye. For measurement of the reduction potential the solution must be deaerated with argon prior to examination. The preferred working electrode is a Pt disk (ca. 0.02 cm^2) that is polished with 1 μm diamond paste, rinsed with water, and dried before each experiment. The reference electrode is a NaCl saturated calomel electrode. The cell and reference electrodes are maintained at 22 C. A value of 40 mV is added to the measured potentials to convert the number to that corresponding to an Ag/AgCl reference electrode. If a solvent other than acetonitrile is used then the measured potential must be referenced to a standard organic redox system such as ferrocene and corrected accordingly.
SHACV (Second Harmonic Alternating Current Voltametry) measurements are made as described by Lenhard in the Journal of Imaging Science volume 30, 1986 pp 27-35 using a commercially available (Princeton Applied Research Corp.) potentiostat in conjunction with voltage programmer, a conventional lock-in amplifier, and a low-distortion oscillator. The SHACV method utilizes an ac voltage waveform (of a frequency greater than or equal to 400 hz) that is superimposed on a DC potential ramp. […]

Compound | ER(v), electrochemical reduction potential | Er
CCN1C(=CC=Cc2sc3cc4ccccc4nc3[n+]2CC)Sc2cc3ccccc3nc21 [Dye D-150] | −.808 V | −0.808
CCN1/C(=C/C=C/c2sc3ccccc3[n+]2CC)Sc2ccccc21.[I-] [Dye D-101] | −1.06 V | −1.060
CCN1C(=CC=Cc2sc3cc4ccccc4cc3[n+]2CC)Sc2cc3ccccc3cc21 [AC-2] | −.920 V | –
CCN1/C(=C\C=C\C2=[N+](CC)c3ccccc3C2(C)C)C(C)(C)c2ccccc21 [Dye D-103] | – | −1.000
COc1cccc2c1C(=O)c1c(O)c3c(c(O)c1C2=O)C[C@@](O)(C(=O)CO)C[C@@H]3O[C@H]1C[C@H](N)[C@H](O)[C@H](C)O1 [Adriamycin, reference compound] | −0.68 V | –
CCN1/C(=C/C=C/c2sc3cc4ccccc4cc3[n+]2CC)Sc2cc3ccccc3cc21 [Dye D-160] | – | −0.920
CCN1/C(=C/C=C/c2sc3cc4ccccc4cc3[n+]2CC)Sc2cc3ccccc3cc21 [Dye D-109] | – | −0.920

— US20060099712A1, “Correlation of anti-cancer activity of dyes with redox potentials” (Eastman Kodak Company, priority 2004, published 2006)
